# In ChEMBL document CHEMBL3507680, “University of Dundee, Gates Library screen for HepG2 cell viability”:
# Values joined by “and” are separate entries in the source; they are usually repeats but may differ in a detail not shown here. Identical values can stand only once.
# Assay: Human HepG2 cell viability assay in 384 well format
# Format: toxicity, cell-based
# Set-up: dose 125 nL, time 70.5 hour; cytotoxicity at 70.5 h: concentration not given beside the values
# Details: HepG2 cells, read-out: Inhibition
row,Structure (SMILES),cytotoxicity at 70.5 h [%]
1,CCN(CC)c1nc(Nc2cccc(C(C)O)c2)nc2ccccc12 (stereo not drawn),65
2,COc1ccc(C2CCCN2c2nnc(C)s2)c(OC)c1 (stereo not drawn),64.4
3,Cc1cc(C(=O)NCC(O)c2c(Cl)cccc2Cl)nn1C (stereo not drawn),71.4
4,Cc1nc(CN2CCCC(N(C)Cc3cnn(C)c3)C2)no1 (stereo not drawn),89.5
5,COCCn1c2c(ccc1=O)CC(NCc1cnn(C)c1)CC2 (stereo not drawn),101
6,CNc1cc(C)nc(NCc2cc(C)cc3c(C)c(C)[nH]c23)n1,67.2
7,CCc1[nH]c2c(CNc3nc(C)cc(NC)n3)cc(C)cc2c1C,99.9
8,COc1ccc(OCCN2CCC(N3CCNC3=O)CC2)cc1,80.5
9,Cc1cnc(C(=O)N2CCCC(n3ccnc3C)C2)cn1 (stereo not drawn),61.9
10,COCCN1CCN(Cc2cccc(C(N)=O)c2)CC1C (stereo not drawn),71.2
11,CC(O)CN1CCC(CNCc2c[nH]nc2C(C)(C)C)CC1 (stereo not drawn),70.3
12,Cc1cc(NC(=O)CN2CCn3c(nnc3C(C)C)C2)no1,67.5
13,CN1CCC(c2n[nH]c3ncccc23)C1.O=CO (stereo not drawn),81.6

# Assay: Human HepG2 cell viability dose-response assay
# Format: toxicity, cell-based
# Details: not given
Structure (SMILES),BOTTOM,HILLSLOPE,TOP,pXC50
CCN(CC)c1nc(Nc2cccc(C(C)O)c2)nc2ccccc12 (stereo not drawn),-6.556 and -9.604,3.369 and 3.239,95.36 and 94.66,5.073 and 5.085
COc1ccc(C2CCCN2c2nnc(C)s2)c(OC)c1 (stereo not drawn),0,0,0,< 4.53
Cc1cc(C(=O)NCC(O)c2c(Cl)cccc2Cl)nn1C (stereo not drawn),0,0,0,< 4.53
Cc1nc(CN2CCCC(N(C)Cc3cnn(C)c3)C2)no1 (stereo not drawn),0,0,0,< 4.53
COCCn1c2c(ccc1=O)CC(NCc1cnn(C)c1)CC2 (stereo not drawn),0,0,0,< 4.53
CNc1cc(C)nc(NCc2cc(C)cc3c(C)c(C)[nH]c23)n1,-6.522 and -8.24,2.624 and 2.705,104.6 and 104.5,5.463 and 5.453
CCc1[nH]c2c(CNc3nc(C)cc(NC)n3)cc(C)cc2c1C,-3.977 and -5.003,3.393 and 3.303,104.5 and 105,5.219 and 5.191
COc1ccc(OCCN2CCC(N3CCNC3=O)CC2)cc1,–,1.006 and 1.131,99.89 and 100,4.882 and 4.993
Cc1cnc(C(=O)N2CCCC(n3ccnc3C)C2)cn1 (stereo not drawn),0,0,0,< 4.53
COCCN1CCN(Cc2cccc(C(N)=O)c2)CC1C (stereo not drawn),0,0,0,< 4.53
CC(O)CN1CCC(CNCc2c[nH]nc2C(C)(C)C)CC1 (stereo not drawn),0,0,0,< 4.53
Cc1cc(NC(=O)CN2CCn3c(nnc3C(C)C)C2)no1,0,0,0,< 4.53
CN1CCC(c2n[nH]c3ncccc23)C1.O=CO (stereo not drawn),–,2.128 and 2.318,100,4.946 and 4.92
